The target of the assay is ERα (Homo sapiens (Human), UniProt P03372). Kind of assay: Estrogen receptor degradation activity: breast cancer cell ERα in cell western assay. To be noted: MCF7 cells; for % Degradation At 0.3 μM: 4 hours, normalised to fulvestrant 0.1 μM and DMSO; for IC50: 4 hours post compound addition, concentration which degrades 50% of the estrogen receptor. Format: cell-based. The method, then:
Said test involves measuring the in vitro degradation activity of the compounds of the Table 1a.
The measurements of the degradation activities were made using a breast cancer cell ERα in cell western assay as described hereunder.
MCF7 cells (ATCC) were seeded in 384 wells microplate (collagen coated) at a concentration of 10000 cells/30 μL per well in red phenol free MEM alpha medium (invitrogen) containing 5% charcoal dextran striped FBS. The following day, 9 points serial 1:5 dilution of each compound was added to the cells in 2.5 μL at final concentrations ranging from 0.3-0.0000018 μM (in table 2), or 0.1 μM for fulvestrant (using as positive control). At 4 hours post compound addition the cells were fixed by adding 25 μL of formalin (final concentration 5% formalin containing 0.1% triton) for 10 minutes at room temperature and then washed twice with PBS. Then, 50 μL of LI-COR blocking buffer containing 0.1% Triton was added to plate for 30 minutes at room temperature. LI-COR blocking buffer was removed and cells were incubated overnight at cold room with 50 μL anti-ER rabbit monoclonal antibody (Thermo scientific MA1-39540) diluted at 1:1000 in LI-COR blocking buffer containing 0.1% tween-20. Wells which were treated with blocking buffer but no antibody were used as background control. Wells were washed twice with PBS (0.1% tween-20) and incubated at 37° C. for 60 minutes in LI-COR (0.1% tween-20) containing goat anti-rabbit antibody Alexa 488 (1:1000) and Syto-64 a DNA dye (2 μM final concentration). Cells were then washed 3 times in PBS and scanned in ACUMEN explorer (TTP-Labtech). Integrated intensities in the green fluorescence and red fluorescence were measured to determine the levels of ERα and DNA respectively.
The degradation activity with respect to estrogen receptors in this test is given by the concentration which degrades 50% of the estrogen receptor (or IC50) in nM.
The % of ERα levels decrease were determined as follows: % inhibition=100*(1−(sample−fulvestrant:DMSO−fulvestrant)).

Chain of ERα (P03372 whole entry): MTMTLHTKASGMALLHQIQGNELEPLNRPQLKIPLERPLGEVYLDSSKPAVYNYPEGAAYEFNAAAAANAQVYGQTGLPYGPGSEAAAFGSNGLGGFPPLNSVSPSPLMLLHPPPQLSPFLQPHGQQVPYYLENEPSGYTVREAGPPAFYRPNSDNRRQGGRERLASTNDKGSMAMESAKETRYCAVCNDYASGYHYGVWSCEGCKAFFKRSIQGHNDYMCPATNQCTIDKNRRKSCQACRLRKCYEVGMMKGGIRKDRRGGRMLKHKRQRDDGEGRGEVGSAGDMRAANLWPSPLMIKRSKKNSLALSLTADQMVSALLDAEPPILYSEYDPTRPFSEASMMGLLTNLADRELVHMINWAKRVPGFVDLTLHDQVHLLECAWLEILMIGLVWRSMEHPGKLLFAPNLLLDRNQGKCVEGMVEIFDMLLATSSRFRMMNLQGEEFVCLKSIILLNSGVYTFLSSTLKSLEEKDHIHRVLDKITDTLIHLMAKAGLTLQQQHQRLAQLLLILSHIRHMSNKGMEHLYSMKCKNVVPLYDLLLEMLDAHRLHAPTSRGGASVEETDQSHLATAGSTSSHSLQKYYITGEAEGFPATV

Consider `COc1cc(C)cc(C)c1C1=C(c2ccc(C=C3CN(CCCF)C3)cc2)c2ccc(C(=O)O)cc2CCC1` [Compound 14, 9-(4-((1-(3-fluoropropyl)azetidin-3-ylidene)methyl)phenyl)-8-(2-methoxy-4,6-dimethylphenyl)-6,7-dihydro-5H-benzo[7]annulene-3-carboxylic acid], for which the “% Degradation At 0.3 μM” value is 91% and the IC50 stood at 600 pM.

`CC(F)(F)c1cc(F)ccc1C1=C(c2ccc(C=C3CN(CCCF)C3)cc2)c2ccc(C(=O)O)cc2CCC1` [Compound 15, 8-(2-(1,1-difluoroethyl)-4-fluorophenyl)-9-(4-((1-(3-fluoropropyl)azetidin-3-ylidene)methyl)phenyl)-6,7-dihydro-5H-benzo[7]annulene-3-carboxylic acid]: the “% Degradation At 0.3 μM” value came out at 91% and the IC50 turned out to be 400 pM.

Consider `O=C(O)c1ccc2c(c1)CCCC(c1c(Cl)cccc1C(F)(F)F)=C2c1ccc(C=C2CN(CCCF)C2)cc1` [Compound 16, 8-(2-chloro-6-(trifluoromethyl)phenyl)-9-(4-((1-(3-fluoropropyl)azetidin-3-ylidene)methyl)phenyl)-6,7-dihydro-5H-benzo[7]annulene-3-carboxylic acid], for which the “% Degradation At 0.3 μM” value is listed as 92% and the midpoint of inhibition, the IC50, lay at 300 pM.

In the case of `O=C(O)c1ccc2c(c1)CCCC(c1c(Cl)cccc1OC(F)(F)F)=C2c1ccc(C=C2CN(CCCF)C2)cc1` [Compound 17, 8-(2-chloro-6-(trifluoromethoxy)phenyl)-9-(4-((1-(3-fluoropropyl)azetidin-3-ylidene)methyl)phenyl)-6,7-dihydro-5H-benzo[7]annulene-3-carboxylic acid], the “% Degradation At 0.3 μM” value is 91% and half-maximal inhibition (IC50) required 500 pM.

As for `COc1cc(C)c(C2=C(c3ccc(C=C4CN(CCCF)C4)cc3)c3ccc(C(=O)O)cc3CCC2)c(C)c1` [Compound 18, 9-(4-((1-(3-fluoropropyl)azetidin-3-ylidene)methyl)phenyl)-8-(4-methoxy-2,6-dimethylphenyl)-6,7-dihydro-5H-benzo[7]annulene-3-carboxylic acid], the “% Degradation At 0.3 μM” value is recorded as 91% and the midpoint of inhibition, the IC50, lay at 600 pM.

`CCc1ccc(C2=C(c3ccc(C=C4CN(CCCF)C4)cc3)c3ccc(C(=O)O)cc3CCC2)c(C(F)(F)F)c1` [Compound 19, 8-(4-ethyl-2-(trifluoromethyl)phenyl)-9-(4-((1-(3-fluoropropyl)azetidin-3-ylidene)methyl)phenyl)-6,7-dihydro-5H-benzo[7]annulene-3-carboxylic acid]: the “% Degradation At 0.3 μM” value is on record as 92% and the IC50 was determined as 200 pM.

Consider `O=C(O)c1ccc2c(c1)CCCC(c1c(F)cccc1C(F)(F)F)=C2c1ccc(C=C2CN(CCCF)C2)cc1` [Compound 20, 8-(2-fluoro-6-(trifluoromethyl)phenyl)-9-(4-((1-(3-fluoropropyl)azetidin-3-ylidene)methyl)phenyl)-6,7-dihydro-5H-benzo[7]annulene-3-carboxylic acid], for which the “% Degradation At 0.3 μM” value came out at 94% and the IC50 worked out at 600 pM.

Consider `Cc1cccc(Cl)c1C1=C(c2ccc(C=C3CN(CCCF)C3)cc2)c2ccc(C(=O)O)cc2CCC1` [Compound 21, 8-(2-chloro-6-methylphenyl)-9-(4-((1-(3-fluoropropyl)azetidin-3-ylidene)methyl)phenyl)-6,7-dihydro-5H-benzo[7]annulene-3-carboxylic acid], for which the “% Degradation At 0.3 μM” value is on record as 93% and the IC50 amounted to 500 pM.

`COc1cccc(F)c1C1=C(c2ccc(C=C3CN(CCCF)C3)cc2)c2ccc(C(=O)O)cc2CCC1` [Compound 22, 8-(2-fluoro-6-methoxyphenyl)-9-(4-((1-(3-fluoropropyl)azetidin-3-ylidene)methyl)phenyl)-6,7-dihydro-5H-benzo[7]annulene-3-carboxylic acid]: the “% Degradation At 0.3 μM” value worked out at 94% and it took 500 pM to reach half-maximal inhibition (IC50).

On to `COc1cccc(Cl)c1C1=C(c2ccc(C=C3CN(CCCF)C3)cc2)c2ccc(C(=O)O)cc2CCC1` [Compound 23, 8-(2-chloro-6-methoxyphenyl)-9-(4-((1-(3-fluoropropyl)azetidin-3-ylidene)methyl)phenyl)-6,7-dihydro-5H-benzo[7]annulene-3-carboxylic acid], for which the “% Degradation At 0.3 μM” value came to 91% and inhibition was half-maximal at 400 pM (IC50).

For the molecule `Cc1c(OC(F)(F)F)cccc1C1=C(c2ccc(C=C3CN(CCCF)C3)cc2)c2ccc(C(=O)O)cc2CCC1` [Compound 24, 9-(4-((1-(3-fluoropropyl)azetidin-3-ylidene)methyl)phenyl)-8-(2-methyl-3-(trifluoromethoxy)phenyl)-6,7-dihydro-5H-benzo[7]annulene-3-carboxylic acid], the “% Degradation At 0.3 μM” value turned out to be 91% and the IC50 amounted to 500 pM.

Regarding `CCc1cc(C(F)(F)F)ccc1C1=C(c2ccc(C=C3CN(CCCF)C3)cc2)c2ccc(C(=O)O)cc2CCC1` [Compound 25, 8-(2-ethyl-4-(trifluoromethyl)phenyl)-9-(4-((1-(3-fluoropropyl)azetidin-3-ylidene)methyl)phenyl)-6,7-dihydro-5H-benzo[7]annulene-3-carboxylic acid], the “% Degradation At 0.3 μM” value was 91% and 400 pM corresponded to half-maximal inhibition (IC50).

With `Cc1cccc(F)c1C1=C(c2ccc(C=C3CN(CCCF)C3)cc2)c2ccc(C(=O)O)cc2CCC1` [Compound 26, 8-(2-fluoro-6-methylphenyl)-9-(4-((1-(3-fluoropropyl)azetidin-3-ylidene)methyl)phenyl)-6,7-dihydro-5H-benzo[7]annulene-3-carboxylic acid], the “% Degradation At 0.3 μM” value is 91% and half-maximal inhibition (IC50) was put at 200 pM.

As to `Cc1cc(C2=C(c3ccc(C=C4CN(CCCF)C4)cc3)c3ccc(C(=O)O)cc3CCC2)c(C)cc1F` [Compound 27, 8-(4-fluoro-2,5-dimethylphenyl)-9-(4-((1-(3-fluoropropyl)azetidin-3-ylidene)methyl)phenyl)-6,7-dihydro-5H-benzo[7]annulene-3-carboxylic acid], the “% Degradation At 0.3 μM” value is 93% and the midpoint of inhibition, the IC50, lay at 500 pM.

Regarding `Cc1cc(C2=C(c3ccc(C=C4CN(CCCF)C4)cc3)c3ccc(C(=O)O)cc3CCC2)ccc1C(F)F` [Compound 28, 8-(4-(difluoromethyl)-3-methylphenyl)-9-(4-((1-(3-fluoropropyl)azetidin-3-ylidene)methyl)phenyl)-6,7-dihydro-5H-benzo[7]annulene-3-carboxylic acid], the “% Degradation At 0.3 μM” value is reported as 94% and the IC50 is 500 pM.

As for `COc1cc(C(F)F)ccc1C1=C(c2ccc(C=C3CN(CCCF)C3)cc2)c2ccc(C(=O)O)cc2CCC1` [Compound 29, 8-(4-(difluoromethyl)-2-methoxyphenyl)-9-(4-((1-(3-fluoropropyl)azetidin-3-ylidene)methyl)phenyl)-6,7-dihydro-5H-benzo[7]annulene-3-carboxylic acid], the “% Degradation At 0.3 μM” value is recorded as 93% and the IC50 is 600 pM.

For the molecule `Cc1cccc(C2=C(c3ccc(C=C4CN(CCCF)C4)cc3)c3ccc(C(=O)O)cc3CCC2)c1C(F)F` [Compound 30, 8-(2-(difluoromethyl)-3-methylphenyl)-9-(4-((1-(3-fluoropropyl)azetidin-3-ylidene)methyl)phenyl)-6,7-dihydro-5H-benzo[7]annulene-3-carboxylic acid], the “% Degradation At 0.3 μM” value is given as 91% and the IC50 was found to be 400 pM.

On to `COc1cc(C2=C(c3ccc(C=C4CN(CCCF)C4)cc3)c3ccc(C(=O)O)cc3CCC2)ccc1C(F)F` [Compound 31, 8-(4-(difluoromethyl)-3-methoxyphenyl)-9-(4-((1-(3-fluoropropyl)azetidin-3-ylidene)methyl)phenyl)-6,7-dihydro-5H-benzo[7]annulene-3-carboxylic acid], for which the “% Degradation At 0.3 μM” value was found to be 95% and the midpoint of inhibition, the IC50, lay at 37800 pM.

Take `O=C(O)c1ccc2c(c1)CCCC(c1ccccc1CF)=C2c1ccc(C=C2CN(CCCF)C2)cc1` [Compound 32, 8-(2-(fluoromethyl)phenyl)-9-(4-((1-(3-fluoropropyl)azetidin-3-ylidene)methyl)phenyl)-6,7-dihydro-5H-benzo[7]annulene-3-carboxylic acid]: the “% Degradation At 0.3 μM” value is listed as 91% and the IC50 is 300 pM.

For the molecule `O=C(O)c1ccc2c(c1)CCCC(c1cccc(F)c1OC(F)F)=C2c1ccc(C=C2CN(CCCF)C2)cc1` [Compound 33, 8-(2-(difluoromethoxy)-3-fluorophenyl)-9-(4-((1-(3-fluoropropyl)azetidin-3-ylidene)methyl)phenyl)-6,7-dihydro-5H-benzo[7]annulene-3-carboxylic acid], the “% Degradation At 0.3 μM” value worked out at 91% and the IC50 worked out at 300 pM.

One may read the IC50 as the concentration that gives 50% inhibition. A higher IC50 goes with weaker potency.

(Values after patent US20250255848A1, “SUBSTITUTED 6,7-DIHYDRO-5H-BENZO[7]ANNULENE DERIVATIVES, PROCESSES FOR THEIR PREPARATION AND THERAPEUTIC USES THEREOF” (SANOFI, priority 2022, published 2025).)
